In PMC6467533 (Chembiochem : a European journal of chemical biology, 2018):

Target: Mtb TPP (Mycobacterium tuberculosis, UniProt P9WFZ5)
Type: biochemical

Mtb TPP, sequence (P9WFZ5 whole entry, looked up): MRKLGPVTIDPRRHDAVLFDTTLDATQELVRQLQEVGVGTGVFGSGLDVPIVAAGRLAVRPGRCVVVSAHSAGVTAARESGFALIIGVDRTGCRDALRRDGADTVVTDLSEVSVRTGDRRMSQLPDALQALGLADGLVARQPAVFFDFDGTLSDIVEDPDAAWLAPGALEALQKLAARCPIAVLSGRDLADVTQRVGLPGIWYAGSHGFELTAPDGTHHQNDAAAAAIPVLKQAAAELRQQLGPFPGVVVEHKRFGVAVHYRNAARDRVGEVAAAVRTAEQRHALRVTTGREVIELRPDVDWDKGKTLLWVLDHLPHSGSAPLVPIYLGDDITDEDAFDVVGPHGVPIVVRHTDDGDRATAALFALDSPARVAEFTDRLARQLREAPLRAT

## O=P(O)(O)C[C@H]1O[C@H](O[C@H]2O[C@H](CO)[C@@H](O)[C@H](O)[C@H]2O)[C@H](O)[C@@H](O)[C@@H]1O [TMP, 6-Deoxy-6-(phosphonic acid)-α,α’-trehalose]
  IC50 fold worse than the determined T6P KM, Mtb TPP: 2.8 fold
